Data taken from patent US20250277012A1 (Protagonist Therapeutics, Inc., priority 2021, published 2025).
pIC50: −log10 of the molar value. Where two headings read alike, the source gives them in different places. Starred links: 1 amine or outer side, 2 acyl side, 3 side chain; linkers in the order of their positions; H or OH if unused. Positions of bridges follow the written chain, without caps; N, C: chain ends. Non-standard residues stand in square brackets, D forms with d. Residues, ends and D or L forms follow the SMILES beside them. Groups on a side chain read outwards from the residue. *: point of attachment. CH3O(CH2CH2O)11CH2CH2CO = COCCOCCOCCOCCOCCOCCOCCOCCOCCOCCOCCOCCC(=O)*; X1 = C[N+](C)(CCNC(=O)CCCCCCCCCCCCCCCCC(=O)O)CC(=O)*; X5 = CCCCCCCCCCCCCCCC(=O)NCC[N+](C)(C)CC(=O)*; Bip = N[C@@H](Cc1ccc(-c2ccccc2)cc1)C(=O)O; C18 diacid = O=C(O)CCCCCCCCCCCCCCCCC(=O)*; Dip = N[C@H](C(=O)O)C(c1ccccc1)c1ccccc1; γGlu = O=C(O)[C@H](CCC(=O)[*:2])N[*:1]; Palmitoyl = CCCCCCCCCCCCCCCC(=O)*; NMeF = CN[C@@H](Cc1ccccc1)C(=O)O; β3hF = N[C@H](CC(=O)O)Cc1ccccc1; NMeK = CN[C@@H](CCCCN)C(=O)O; Pen = CC(C)(S)[C@H](N)C(=O)O; Isovaleryl = CC(C)CC(=O)*; dNMeS = CN[C@H](CO)C(=O)O; Dap = NC[C@H](N)C(=O)O; AEEA = NCCOCCOCC(=O)O; Inp = O=C(O)C1CCNCC1; Ahx = NCCCCCC(=O)O

What was measured:
[1] = target: T1, ferroportin (Homo sapiens, UniProt Q9NP59); test: T47D cell-based ferroportin internalization assay in presence of mouse serum albumin (MSA); design: a human breast carcinoma adherent cell line which endogenously expresses ferroportin; host or cells: T47D
T1 sequence (Q9NP59 1-571): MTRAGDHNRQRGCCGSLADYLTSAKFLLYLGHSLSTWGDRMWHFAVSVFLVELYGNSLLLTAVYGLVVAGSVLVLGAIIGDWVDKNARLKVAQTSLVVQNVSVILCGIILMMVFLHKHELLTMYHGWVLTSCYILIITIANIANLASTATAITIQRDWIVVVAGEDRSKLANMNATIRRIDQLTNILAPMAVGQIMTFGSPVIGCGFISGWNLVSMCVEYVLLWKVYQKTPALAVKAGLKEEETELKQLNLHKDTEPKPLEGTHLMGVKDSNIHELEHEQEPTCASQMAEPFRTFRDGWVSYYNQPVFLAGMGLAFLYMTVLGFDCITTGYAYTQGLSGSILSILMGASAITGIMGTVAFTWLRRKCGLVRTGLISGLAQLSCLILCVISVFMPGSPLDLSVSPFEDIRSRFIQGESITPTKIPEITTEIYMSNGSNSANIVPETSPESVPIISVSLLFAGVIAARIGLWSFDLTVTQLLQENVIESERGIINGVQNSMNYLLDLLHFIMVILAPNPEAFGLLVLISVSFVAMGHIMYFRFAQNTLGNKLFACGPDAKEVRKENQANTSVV
How it was run: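 Peptide potency for inducing ferroportin internalization was measured in T47D cells in the presence of serum albumin. Cells grown in RPMI with fetal bovine serum were seeded in 96-well plates at 80-100 k cells per well in 100 ul and rested overnight. Dilution series of test peptides were preincubated 30 min at room temperature, then added to the cells after the medium was aspirated.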

[2] = target: T1, ferroportin; test: FPN activity assay: ferroportin-GFP internalization/degradation in HEK293 cells; type: cell-based; design: expressed in transfected cells; details: read-out: FPN IC50
Procedure: Following internalization, the ferroporin protein is degraded.
A retro inverse peptide is a peptide with a reversed sequence in all D amino acids. An example is that Hy-Glu-Thr-His-NH2 becomes Hy-DHis-DThr-DGlu-NH2. The EC50 of these reference compounds for ferroportin internalization/degradation was determined according to the FPN activity assay described above. These peptides served as control standards.

[3] = T47D internalization assay in presence of mouse serum albumin (MSA), Table 6E
[4] = ferroportin-GFP internalization/degradation, HEK293 cells, Table 6E
[5] = Table 6E, T47D internalization assay with MSA
[6] = Table 6E, ferroportin-GFP internalization/degradation, at least 18 hours incubation

| Structure (SMILES) | pIC50 [1, 3] | DC50 [2, 4] [nM] | further results |
| --- | --- | --- | --- |
| CCCCCCCCCCCCCCCC(=O)NCC[N+](C)(C)CC(=O)NCCCC[C@@H](C(=O)N[C@H](C(=O)N[C@H](CCCCN)C(N)=O)C(c1ccccc1)c1ccccc1)N(C)C(=O)[C@@H]1CSSC[C@H](NC(=O)[C@@H]2CCCN2C(=O)[C@@H](NC(=O)[C@H](Cc2cnc[nH]2)NC(=O)[C@@H](NC(=O)[C@H](CCC(=O)O)NC(=O)CC(C)C)[C@@H](C)O)C(c2ccccc2)c2ccccc2)C(=O)N1 [compound 194] (Isovaleryl-ETH[Dip]PCC[NMeK](X5)[Dip][dK]-NH2; disulfide 6-7) |  |  | pIC50 [1, 5]: 8.00 to 9.00; DC50 [2, 6]: 10 to 100 nM |
| CC[C@H](C)[C@@H]1NC(=O)[C@@H](NC(=O)[C@@H]2CCCN2C(=O)[C@H](Cc2ccccc2)NC(=O)[C@H](Cc2c[nH]cn2)NC(=O)[C@@H](NC(=O)[C@H](CCC(=O)O)NC(=O)CC(C)C)[C@@H](C)O)C(C)(C)SSC(C)(C)[C@@H](C(=O)N[C@@H](CCCCN)C(N)=O)NC(=O)CNC(=O)[C@H](CCCCN)NC(=O)[C@H](CO)NC(=O)[C@H](CCCNC(=N)N)NC(=O)[C@@H]2CCCN2C(=O)[C@H](CCC(=O)O)NC(=O)[C@H](Cc2ccccc2)NC(=O)[C@H](CCCCNC(=O)COCCOCCNC(=O)COCCOCCNC(=O)CC[C@H](NC(=O)CCCCCCCCCCCCCCCCC(=O)O)C(=O)O)NC1=O [Compd 18] (Isovaleryl-ETHFP[Pen]IK([AEEA-AEEA-γGlu-C18 diacid])FEPRSKG[Pen]K-NH2; disulfide 6-16) |  |  | pIC50 ([1]; T47D cells, 0.5% mouse serum albumin, 1 hr incubation): < 6.30; DC50 ([2]; ferroportin-GFP HEK293 cells, at least 18 hours): > 500 nM |
| CC(C)CC(=O)N[C@@H](CCC(=O)O)C(=O)N[C@H](C(=O)N[C@@H](Cc1c[nH]cn1)C(=O)N[C@H](C(=O)N1CCC[C@H]1C(=O)N[C@H]1CSSC[C@@H](C(=O)N(C)[C@@H](CCCCNC(=O)CCCCCNC(=O)C[N+](C)(C)CCNC(=O)CCCCCCCCCCCCCCCCC(=O)O)C(=O)N[C@@H](Cc2ccc(-c3ccccc3)cc2)C(=O)N[C@H](CCCCN)C(N)=O)NC1=O)C(c1ccccc1)c1ccccc1)[C@@H](C)O [compound 183] (Isovaleryl-ETH[Dip]PCC[NMeK]([Ahx-X1])[Bip][dK]-NH2; disulfide 6-7) |  |  | pIC50 [1, 5]: 7.00 to 8.00; DC50 [2, 6]: 10 to 100 nM |
| CC(C)CC(=O)N[C@@H](CCC(=O)O)C(=O)N[C@H](C(=O)N[C@@H](Cc1c[nH]cn1)C(=O)N[C@H](C(=O)N1CCC[C@H]1C(=O)N[C@H]1CSSC[C@@H](C(=O)N[C@@H](CCCCNC(=O)CCCCCNC(=O)C[N+](C)(C)CCNC(=O)CCCCCCCCCCCCCCCCC(=O)O)C(=O)N[C@H](CC(=O)N[C@H](CCCCN)C(N)=O)Cc2ccccc2)NC1=O)C(c1ccccc1)c1ccccc1)[C@@H](C)O [compound 312] (Isovaleryl-ETH[Dip]PCCK([Ahx-X1])[β3hF][dK]-NH2; disulfide 6-7) | 7.00 to 8.00 | 10 to 100 |  |
| C[C@@H](O)[C@H](NC(=O)[C@H](CCC(=O)O)NC(=O)C1CCNCC1)C(=O)N[C@@H](Cc1c[nH]cn1)C(=O)N[C@H](C(=O)N1CCC[C@H]1C(=O)N[C@H]1CSSC[C@@H](C(=O)N(C)[C@@H](CCCCNC(=O)COCCOCCNC(=O)COCCOCCNC(=O)[C@H](CN)NC(=O)CCCCCCCCCCCCCCCCC(=O)O)C(=O)N[C@H](CC(=O)N[C@H](CCCCN)C(N)=O)Cc2ccccc2)NC1=O)C(c1ccccc1)c1ccccc1 [compound 300] (H-[Inp]ETH[Dip]PCC[NMeK]([AEEA-AEEA-Dap-C18 diacid])[β3hF][dK]-NH2; disulfide 7-8) | 6.30 to 7.00 | 100 to 500 |  |

The next lines start with results.

| pIC50 [1, 3] | DC50 [2, 4] [nM] | Structure (SMILES) | further results |
| --- | --- | --- | --- |
| 8.00 to 9.00 | 10 to 100 | CCCCCCCCCCCCCCCC(=O)NCCCCCC(=O)NCCCC[C@@H](C(=O)N[C@H](CC(=O)N[C@H](CCCCN)C(N)=O)Cc1ccccc1)N(C)C(=O)[C@@H]1CSSC[C@H](NC(=O)[C@@H]2CCCN2C(=O)[C@@H](NC(=O)[C@H](Cc2cnc[nH]2)NC(=O)[C@@H](NC(=O)[C@H](CCC(=O)OC)NC(=O)CC(C)C)[C@@H](C)O)C(c2ccccc2)c2ccccc2)C(=O)N1 [compound 307] (Isovaleryl-E(OMe)TH[Dip]PCC[NMeK]([Ahx-Palmitoyl])[β3hF][dK]-NH2; disulfide 6-7) |  |
| 7.00 to 8.00 | 10 to 100 | CC(C)CC(=O)N[C@@H](CCC(=O)O)C(=O)N[C@H](C(=O)N[C@@H](Cc1c[nH]cn1)C(=O)N[C@H](C(=O)N1CCC[C@H]1C(=O)N[C@H]1CSSC[C@@H](C(=O)N(C)[C@@H](CCCCNC(=O)COCCOCCNC(=O)COCCOCCNC(=O)[C@H](CN)NC(=O)CCCCCCCCCCCCCCCCC(=O)O)C(=O)N(C)[C@@H](Cc2ccccc2)C(=O)N[C@H](CCCCN)C(N)=O)NC1=O)C(c1ccccc1)c1ccccc1)[C@@H](C)O [compound 291] (Isovaleryl-ETH[Dip]PCC[NMeK]([AEEA-AEEA-Dap-C18 diacid])[NMeF][dK]-NH2; disulfide 6-7) |  |
| 7.00 to 8.00 | 10 to 100 | CC(C)CC(=O)N[C@@H](CCC(=O)O)C(=O)N[C@H](C(=O)N[C@@H](Cc1c[nH]cn1)C(=O)N[C@H](C(=O)N1CCC[C@H]1C(=O)N[C@H]1CSSC[C@@H](C(=O)N(C)[C@@H](CCCCNC(=O)COCCOCCNC(=O)COCCOCCNC(=O)[C@H](CN)NC(=O)CCCCCCCCCCCCCCCCC(=O)O)C(=O)N[C@H](CC(N)=O)Cc2ccccc2)NC1=O)C(c1ccccc1)c1ccccc1)[C@@H](C)O [compound 295] (Isovaleryl-ETH[Dip]PCC[NMeK]([AEEA-AEEA-Dap-C18 diacid])[β3hF]-NH2; disulfide 6-7) |  |
| 7.00 to 8.00 | 10 to 100 | CC(C)CC(=O)N[C@@H](CCC(=O)O)C(=O)N[C@H](C(=O)N[C@@H](Cc1c[nH]cn1)C(=O)N[C@H](C(=O)N1CCC[C@H]1C(=O)N[C@H]1CSSC[C@@H](C(=O)N(C)[C@@H](CCCCNC(=O)COCCOCCNC(=O)COCCOCCNC(=O)[C@H](CN)NC(=O)CCCCCCCCCCCCCCCCC(=O)O)C(N)=O)NC1=O)C(c1ccccc1)c1ccccc1)[C@@H](C)O [compound 294] (Isovaleryl-ETH[Dip]PCC[NMeK]([AEEA-AEEA-Dap-C18 diacid])-NH2; disulfide 6-7) |  |
| 7.00 to 8.00 | 10 to 100 | COC(=O)CC[C@H](NC(=O)CC(C)C)C(=O)N[C@H](C(=O)N[C@@H](Cc1c[nH]cn1)C(=O)N[C@H](C(=O)N1CCC[C@H]1C(=O)N[C@H]1CSSC[C@@H](C(=O)N[C@@H](CCCCNC(=O)CCCCCNC(=O)C[N+](C)(C)CCNC(=O)CCCCCCCCCCCCCCCCC(=O)O)C(=O)N[C@H](CC(=O)N[C@H](CCCCN)C(N)=O)Cc2ccccc2)NC1=O)C(c1ccccc1)c1ccccc1)[C@@H](C)O [compound 311] (Isovaleryl-E(OMe)TH[Dip]PCCK([Ahx-X1])[β3hF][dK]-NH2; disulfide 6-7) |  |
| 7.00 to 8.00 | 10 to 100 | COCCOCCOCCOCCOCCOCCOCCOCCOCCOCCOCCOCCC(=O)NCCCC[C@@H](NC(=O)C[C@H](Cc1ccccc1)NC(=O)[C@H](CCCCNC(=O)COCCOCCNC(=O)COCCOCCNC(=O)[C@H](CN)NC(=O)CCCCCCCCCCCCCCCCC(=O)O)N(C)C(=O)[C@@H]1CSSC[C@H](NC(=O)[C@@H]2CCCN2C(=O)[C@@H](NC(=O)[C@H](Cc2c[nH]cn2)NC(=O)[C@@H](NC(=O)[C@H](CCC(=O)OC)NC(=O)CC(C)C)[C@@H](C)O)C(c2ccccc2)c2ccccc2)C(=O)N1)C(N)=O [compound 254] (Isovaleryl-E(OMe)TH[Dip]PCC[NMeK]([AEEA-AEEA-Dap-C18 diacid])[β3hF][dK](CH3O(CH2CH2O)11CH2CH2CO)-NH2; disulfide 6-7) |  |
| 8.00 to 9.00 | 10 to 100 | CC(C)CC(=O)N[C@@H](CCC(=O)O)C(=O)N[C@H](C(=O)N[C@@H](Cc1cnc[nH]1)C(=O)N[C@H](C(=O)N1CCC[C@H]1C(=O)N[C@H]1CSSC[C@@H](C(=O)N(C)[C@@H](CCCCNC(=O)COCCOCCNC(=O)COCCOCCNC(=O)[C@H](CN)NC(=O)CCCCCCCCCCCCCCCCC(=O)O)C(=O)N[C@H](CC(=O)N[C@H](CCCCN)C(=O)N(C)[C@H](CO)C(N)=O)Cc2ccccc2)NC1=O)C(c1ccccc1)c1ccccc1)[C@@H](C)O [compound 247] (Isovaleryl-ETH[Dip]PCC[NMeK]([AEEA-AEEA-Dap-C18 diacid])[β3hF][dK][dNMeS]-NH2; disulfide 6-7) |  |
| 8.00 to 9.00 | 10 to 100 | CC(C)CC(=O)N[C@@H](CCC(=O)O)C(=O)N[C@H](C(=O)N[C@@H](Cc1cnc[nH]1)C(=O)N[C@H](C(=O)N1CCC[C@H]1C(=O)N[C@H]1CSSC[C@@H](C(=O)N(C)[C@@H](CCCCNC(=O)COCCOCCNC(=O)COCCOCCNC(=O)[C@H](CN)NC(=O)CCCCCCCCCCCCCCCCC(=O)O)C(=O)N[C@H](CC(=O)N(C)[C@@H](CCCCN)C(N)=O)Cc2ccccc2)NC1=O)C(c1ccccc1)c1ccccc1)[C@@H](C)O [compound 292] (Isovaleryl-ETH[Dip]PCC[NMeK]([AEEA-AEEA-Dap-C18 diacid])[β3hF][NMeK]-NH2; disulfide 6-7) |  |
